Results from patent US7498309B2, “Pharmaceutical compositions for bioactive peptide agents” (Sangstat Medical Corporation, priority 2003, dated 2009).
“Also recorded” adds a separate entry of the source.

Columns and labels:
[1] = Fill formulation: solubility and dispersion of the peptide in Labrafil M 1944 CS; format: physicochemical
Procedure: Fill Formulation. […] The RDP58 peptide was not soluble in Labrafil M 1944 CS, thus a stable suspension of the peptide was made using Colloidal Silicon Dioxide, USP (Aerosil 300) as a suitable dispersing agent. Bench trials were performed to determine the needed quantity of Aerosil 300, which would provide a sufficient viscosity increase to maintain the peptide uniformly suspended for a minimum of 24 hours while allowing the fill formulation to remain flowable or pumpable. The fill formulation for the a 100 mg RDP58 softgel capsule is the following: […]

[2] = tested on: cynomolgus monkeys with chronic and naturally occurring colitis; experiment: RDP58 capsule therapy in primates suffering from colitis (stool quality scores); format: in vivo; details: for response to therapy: capsule from day 0
Procedure: RDP58 oral therapy is believed to have a beneficial effect on resolution of clinical signs of chronic colitis in primates suffering from a naturally occurring colitis like condition. In these studies, RDP58 was administered in aqueous form (i.e., powder dissolved in water) by oral gavage. The objective of the pilot study described in this example was to analyze the effect of administering RDP58 in capsule form to primates suffering from a chronic, naturally occurring, colitis-like condition. Data generated from this study was compared to data obtained from previous studies where RDP58 peptide was administered in aqueous form.
Methods. Four cynomolgus monkeys, with documented clinical histories of chronic and naturally occurring colitis, were selected for the study. All animals were monitored for 7 days before initiating therapy. Animals were dosed with one capsule (approximately 13 mg per capsule) every day, starting on Day 0, for 14 days. A commercially available cat pilling gun was used. Disease activity was monitored using stool quality scores. The scoring system used was the following: 1=Normal; 2=Loose stool; 3=Watery diarrhea; and 4=Bloody diarrhea. Response is defined as an improvement in stool quality score by at least 1 point.
Animals were physically examined twice per day. After 14 days, RDP58 therapy was stopped and animals were monitored for 7 additional days. Stool quality was documented through this period.

[3] = tested on: cynomolgus monkeys with chronic and naturally occurring colitis; experiment: as above; format: in vivo; details: animal MCY33636; capsule from day 0, treatment extended to day 21
[4] = all animals studied, oral capsule

Compound: CCCC[C@@H](NC(=O)[C@H](N)CCCNC(=N)N)C(=O)N[C@H](CCCC)C(=O)N[C@H](CCCC)C(=O)N[C@H](CCCNC(=N)N)C(=O)N[C@H](CCCC)C(=O)N[C@H](CCCC)C(=O)N[C@H](CCCC)C(=O)NCC(=O)N[C@H](Cc1ccc(O)cc1)C(N)=O [RDP58, NH2-(D)Arg-(D)nL-(D)nL-(D)nL-(D)Arg-(D)nL-(D)nL-(D)nL-Gly-(D)Tyr-NH2]
- dispersion of the peptide ([1]; in Labrafil M 1944 CS): enhanced dispersion
- solubility in Labrafil M 1944 CS ([1]; suspending agent Labrafil M 1944 CS): not soluble
- negative side effects [2, 4]: None of the animals studied showed negative side effects
- tolerability of dosing [2, 4]: well tolerated
- effect on disease activity / therapeutic response ([2]; all four animals, one capsule (approximately 13 mg) orally every day for 14 days, stool quality scores): positive effects; also recorded: positive therapeutic response
- response to therapy ([2]; animal 33558): immediate response
- response to re-treatment ([2]; animal 33558, re-treated starting on day 23): Response to therapy was immediate
- time animal remained normal after therapy was stopped ([2]; animal 33558, therapy stopped on day 14): 4 to 5 days
- response to therapy ([2]; animal MCY33560): immediate response
- duration of normal stool quality ([2]; animal MCY33636): 8 days
- response to therapy ([2]; animal MCY33639): immediate positive response
- response to re-treatment ([2]; animal MCY33639, re-treated on day 23): immediate positive response
- response to therapy [3]: response was immediate
